A word on the IC50: it is the concentration needed to halve the response being measured. A high value points to weaker potency.

The test system of one assay is HCT-116. Nature of the assay: Antiproliferative activity against human HCT116 cells after 72 hrs by MTT assay. Type of assay: functional, cell-based. Conditions: HCT-116, 72 h.
A further assay concerns HeLa. The assay is described as follows: Antiproliferative activity against human HeLa cells after 72 hrs by MTT assay. Type of assay: functional, cell-based. Background: Tetrazolium assays rely on reduction of a dye to a coloured formazan, in cell work by metabolically active cells.
The nature of assay [1]: Antiproliferative activity against human FM3 cells after 72 hrs by MTT assay. Type of assay: functional, cell-based. The following applies: FM3, 72 h.
Another assay has as its system Ishikawa. Nature of the assay: Antiproliferative activity against human Ishikawa cells after 72 hrs by MTT assay. Type of assay: functional, cell-based.
Another assay concerns Daudi. The assay is described as follows: Antiproliferative activity against human Daudi cells after 72 hrs by MTT assay. Type of assay: functional, cell-based.
Assay [2] is described as follows: Antiproliferative activity against human MES-SA cells after 72 hrs by MTT assay. Type of assay: functional, cell-based.
Assay [3] in a line: Antiproliferative activity against human MES-SA/Dx5 cells after 72 hrs by MTT assay. Type of assay: functional, cell-based. The following applies: MES-SA/Dx5, 72 h.
In the next assay the test system is MES-SA. Nature of the assay: Ratio of IC50 for human MES-SA/Dx5 cells to IC50 for human MES-SA cells. In kind it is functional.

For the compound `CCN(CC)CCn1c2ccccc2c(=O)c2cc3ncn(C4CCCC4)c3nc21`, the IC50 in the assay on HCT-116 is 8.2 µM; in the assay on HeLa it was 11.7 µM; in assay [1], 28 µM; in the assay with Ishikawa it was 28.6 µM; with Daudi, 10.6 µM; in assay [2], 10.6 µM. The compound further came in with an IC50 in assay [3] of 15.5 µM. For the same compound, in the assay on MES-SA, the “Ratio IC50” value is given as 1.46.

Consider `CCN(CC)CCn1c2ccccc2c(=O)c2cc3ncn(-c4ccccc4)c3nc21`, for which the IC50 in the assay on HCT-116 is 12.9 µM; in the assay on HeLa, 7.27 µM; in assay [1], 4.83 µM; with Ishikawa, 11.3 µM; in the assay on Daudi, 4.93 µM; in assay [2] it was 5.2 µM. In assay [3], this compound yielded a 50% inhibitory concentration (IC50) of 10.4 µM. Also, the “Ratio IC50” value in the assay on MES-SA was determined as 1.99.

Take `CC(C)n1cnc2cc3c(=O)c4ccccc4[nH]c3nc21`: the IC50 in the assay with HCT-116 was 37.4 µM; in the assay on HeLa it was 29.7 µM; in assay [1], 66.7 µM; in the assay with Ishikawa, 62.5 µM; with Daudi, 34.7 µM; in assay [2] it was 37.6 µM. In addition, in assay [3], the IC50 was found to be 46 µM. In addition, the “Ratio IC50” value in the assay with MES-SA was 1.23.

`O=c1c2ccccc2[nH]c2nc3c(cc12)ncn3C1CCCC1`: the 50% inhibitory concentration (IC50) in the assay on HCT-116 was 42.4 µM; in the assay on HeLa it was 21.4 µM; in assay [1], 30.1 µM; in the assay on Ishikawa, 60.8 µM; in the assay with Daudi, 15.3 µM; in assay [2] it was 20 µM. Besides, the midpoint of inhibition in assay [3], the IC50, lay at 17.2 µM. Besides, the “Ratio IC50” value in the assay with MES-SA came out at 0.86.

As for `O=c1c2ccccc2[nH]c2nc3c(cc12)ncn3-c1ccccc1`, the IC50 with HCT-116 was 73.1 µM; in the assay with HeLa it was 27.6 µM; in assay [1], 51.1 µM; with Ishikawa, 50 µM; in the assay with Daudi it was 31.3 µM; in assay [2] it was 47.4 µM. This compound yielded an IC50 in assay [3] of 34.4 µM. Also, the “Ratio IC50” value with MES-SA is 0.73.

As for `CC(C)n1cnc2cc3c(=O)c4ccccc4n(CCO)c3nc21`, the IC50 with HCT-116 worked out at 40.4 µM; with HeLa, 13.2 µM; in assay [1], 45.7 µM; in the assay on Ishikawa it was 66.6 µM; in the assay with Daudi, 22.1 µM; in assay [2], 34.6 µM. Also, the IC50 in assay [3] was determined as 32.6 µM. Moreover, the “Ratio IC50” value in the assay with MES-SA is listed as 0.94.

With `O=c1c2ccccc2n(CCO)c2nc3c(cc12)ncn3C1CCCC1`, the 50% inhibitory concentration (IC50) was 48.7 µM in the assay with HCT-116; 23.4 µM in the assay with HeLa; 66.4 µM in assay [1]; 66.4 µM in the assay with Ishikawa; 19 µM in the assay with Daudi; 22.9 µM in assay [2]. In assay [3], this compound registered an IC50 of 22.2 µM. Besides, in the assay with MES-SA, the “Ratio IC50” value is on record as 0.97.

On to `O=c1c2ccccc2n(CCO)c2nc3c(cc12)ncn3-c1ccccc1`, for which the IC50 with HCT-116 came out at 32.9 µM; in the assay on HeLa, 15.3 µM; in assay [1], 74.8 µM; in the assay with Ishikawa it was 101 µM; with Daudi it was 20.5 µM; in assay [2], 51.7 µM. The compound further had a 50% inhibitory concentration (IC50) in assay [3] of 47.9 µM. In the assay on MES-SA, the “Ratio IC50” value stood at 0.93.

As to `CC(C)n1cnc2cc3c(=O)c4ccccc4n(CCN(C)C)c3nc21`, the IC50 turned out to be 12.4 µM in the assay on HCT-116; 9.32 µM in the assay with HeLa; 17 µM in assay [1]; 39.4 µM in the assay with Ishikawa; 12.9 µM in the assay with Daudi; 22 µM in assay [2]. Further, in assay [3], it took 16.1 µM to reach half-maximal inhibition (IC50). Also, in the assay with MES-SA, the “Ratio IC50” value is 0.73.

For the compound `CN(C)CCn1c2ccccc2c(=O)c2cc3ncn(C4CCCC4)c3nc21`, the IC50 worked out at 30.4 µM in the assay with HCT-116; 28.9 µM with HeLa; 42.4 µM in assay [1]; 39.1 µM in the assay with Ishikawa; 18.9 µM with Daudi; 32.8 µM in assay [2]. The IC50 in assay [3] is 25 µM. Also, the “Ratio IC50” value in the assay on MES-SA is 0.76.

As to `CN(C)CCn1c2ccccc2c(=O)c2cc3ncn(-c4ccccc4)c3nc21`, the 50% inhibitory concentration (IC50) was determined as 27.9 µM in the assay on HCT-116; 23.3 µM with HeLa; 29.8 µM in assay [1]; 43.6 µM in the assay with Ishikawa; 33 µM in the assay on Daudi; 47.3 µM in assay [2]. The compound further registered an IC50 in assay [3] of 41.7 µM. Besides, in the assay with MES-SA, the “Ratio IC50” value is given as 0.88.

Turning to `CCN(CC)CCn1c2ccccc2c(=O)c2cc3ncn(C(C)C)c3nc21`, the IC50 in the assay on HCT-116 stood at 24.5 µM; in the assay on HeLa, 21.6 µM; in assay [1], 50.6 µM; in the assay on Ishikawa, 63.3 µM; in the assay with Daudi, 18 µM; in assay [2], 25.7 µM. The compound also yielded an IC50 in assay [3] of 23.1 µM. In addition, in the assay with MES-SA, the “Ratio IC50” value turned out to be 0.9.

Take `COc1cccc2c1C(=O)c1c(O)c3c(c(O)c1C2=O)C[C@@](O)(C(=O)CO)C[C@@H]3O[C@H]1C[C@H](N)[C@H](O)[C@H](C)O1` [DOXORUBICIN]: the IC50 in the assay with HCT-116 turned out to be 0.18 µM; in the assay on HeLa, 0.337 µM; in assay [1], 0.123 µM; in the assay with Ishikawa, 0.1 µM; in the assay with Daudi it was 0.127 µM; in assay [2] it was 0.035 µM. In assay [3], this compound showed a 50% inhibitory concentration (IC50) of 2.81 µM. In the assay with MES-SA, the “Ratio IC50” value was 80.2.

As for `O=C1c2c(O)ccc(O)c2C(=O)c2c(NCCNCCO)ccc(NCCNCCO)c21` [MITOXANTRONE], the IC50 with HCT-116 turned out to be 0.025 µM; with HeLa, 0.044 µM; in assay [1], 0.013 µM; with Ishikawa it was 0.01 µM; with Daudi, 0.005 µM; in assay [2] it was 0.006 µM. This compound gave an IC50 in assay [3] of 0.073 µM. The “Ratio IC50” value in the assay on MES-SA was found to be 12.17.

These data come from ChEMBL document CHEMBL3588860, “Synthesis and antiproliferative activity of some novel benzo-fused imidazo[1,8]naphthyridinones” (Bioorg Med Chem Lett, 2015).
